Measurements published in patent EP4803511A1, “SMALL MOLECULE COMPOUND HAVING SULFONIC ACID OR SULFINIC ACID LACTONE STRUCTURE, COMPOSITION AND USE THEREOF” (Hangzhou Phecdamed Co., Ltd., priority 2023, dated 2025).
≈ marks a conversion by molar mass, not a printed value.

What was measured:
[1] = test system: HaCaT cells; test: ROS content / ROS scavenging rate in HaCaT after UVB radiation (DCFH-DA); format: cell-based, human; conditions: content 0.0025%; HaCaT cells after UVB radiation
Source text: Oxidative reactions such as respiration and metabolism in organisms generate reactive free radicals. Under normal bodily conditions, free radicals have a stable scavenging system, so that the free radical content of the body is kept at a relatively low concentration. Oxidative stress (OS) refers to an imbalance between oxidation and antioxidation in the body due to endogenous and/or exogenous stimuli, resulting in excessive free radical production. Excessive free radicals produce a series of negative effects in the body, including oxidative damage to biomolecules and further causing cell death and tissue damage, etc. In organisms, almost all ROS, except for trace amounts utilized by the body, should be promptly scavenged. Medium Wave Erythema Effect Ultraviolet (UVB) (280-319 nm) radiation damage is the most important factor leading to photoaging of the skin, primarily damaging keratinocytes (HaCaT), specifically manifested as the accumulation of photoproducts, increased ROS, and exacerbated oxidative damage, etc. Over long periods of evolution, organisms have developed a complete antioxidant system, maintaining a dynamic balance between the production and elimination of free radicals. This is an adaptive mechanism of organisms, and the main members include antioxidant enzymes, antioxidants, and proteins that separate transition metals, all of which can specifically limit oxidative damage to the body. Therefore, the antioxidant efficacy of a test compound can be evaluated by detecting the ROS scavenging rate in keratinocytes after UVB radiation.
• 1) Cell inoculation: HaCaT cells were inoculated into a 96-well plate at 2 × 10^4/well, cultured in an incubator (37 °C, 5% CO2) for 12 hrs, and a control group (120 mJ/cm^2 + vehicle control), a low concentration group (120 mJ/cm^2 + low concentration compound), a medium concentration group (120 mJ/cm^2 + medium concentration compound), and a high concentration group (120 mJ/cm^2 + high concentration compound) were respectively provided. • 2) UVB modeling: The HaCaT cells were washed 3 times with D'Hanks before UVB radiation, 50 µL of D'Hanks was added into the wells, to make the cells to be immersed, and the control group was coated with tinfoil and placed in the dark. For the test groups, UVB modeling was performed on the group requiring radiation, respectively. • 3) Administration: DMEM medium containing different concentrations of compound were added to each test group for continued culture for 24 hrs. • 4) Transferring the ROS fluorescent probe: DCFH-DA was Diluted to a final concentration of 10 µmol/L using PBS at a dilution ratio of 1:1000. The culture medium in all wells except the bare cell wells was discarded. After washing three times with PBS, 200 µL of DCFH-DA working solution was added to each well, then incubated in a CO2 incubator for 30 min, and after incubation, the cells in each well were washed with PBS for 3 times. • 5) Fluorescence analysis. The 96-well plate to be tested was placed on the detection stage of the fluorescence microplate reader, with the […] set to 525 nm, the excitation light wavelength set to 488 nm, and the reading was analyzed.
ROS scavenging rate (%) = (S(Modelcontrolgroup)−S(Samplegroup))/(S(Modelcontrolgroup)) × 100% [formula] wherein S is fluorescence intensity.

[2] = Kinetic solubility in aqueous buffer; format: physicochemical; conditions: 2 hrs at 25 °C
Method: Experimental Methods: 30 µL of the 10 mM DMSO stock solution of the compound to be test was placed in a solubility sample plate (duplicate), 970 µL of aqueous buffer solution was added to the plate, and the plate was sealed with a sealing membrane and shaken at 1100 rpm for 2 hrs at 25 °C. The sample in the solubility plate was transferred to a filter plate, and filtered to obtain a filtrate. 10 µL of the filtrate was transferred into 980 µL of methanol along with 10 µL of DMSO, and then the solution was diluted 10-fold with methanol:water (1:1), and the resulting sample was analyzed by LC-MS/MS to obtain Area (filtered). Separately, 10 mM of the DMSO stock solution of the compound to be test was diluted to 300 µM with DMSO. 10 µL of this 300 µM DMSO solution and 10 µL of aqueous buffer solution were added into 980 µL of methanol, and then diluted 10-fold with methanol:water (1:1), and the resulting sample was analyzed by LC-MS/MS to obtain Area (std). The kinetic solubility was calculated according to the following formula: Solubility(μM) = (Areafiltered × DFfiltered)/(Areastd × DFstd) × [std] × DFstd [formula] wherein DF is the dilution factor.

SMILES	ROS scavenging rate [1] [%]	solubility kinetic at 2 h [2] [µM]
CN(C)C(=O)Oc1ccc2c(c1)OS(=O)(=O)c1cc(OC(=O)N(C)C)ccc1-2 [Compound I-13]	35	
O=c1oc2cc(O)ccc2c2ccc(O)cc12 [Urolithin A, reference compound]		98.8 (≈ 22.5 µg/mL)
CC(C)C(=O)Oc1ccc2c(c1)OS(=O)(=O)c1cc(OC(=O)C(C)C)ccc1-2 [Compound I-14]	29	
